# From ChEMBL document CHEMBL1201862, “PubChem BioAssay data set” (2004)
# Calls of active or inactive are those of the source.
# Key:
# Cytochrome P450 2C19 = Cytochrome P450 2C19 (Homo sapiens, UniProt P33261); test: qHTS Assay for Inhibitors and Substrates of Cytochrome P450 2C19. [Related pubchem assays: 410 ]; type: ADME; conditions: read-out: Potency
# Cytochrome P450 2C9 = Cytochrome P450 2C9 (Homo sapiens, UniProt P11712); conditions: Potency
# HeLa = test: HeLa cell cytotoxicity, dose response, cytotoxicity control, 24 h, cherry-picked samples (AID 504726); type: functional, cell-based; conditions: Homo sapiens;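 also: potency for cytotoxicity as loss of luminescence signal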
# ORF 73 = biological target: T1, ORF 73 (Human herpesvirus 8, UniProt O40947); test: inhibitors of C-LANA binding to LBS DNA, dose response, biochemical, fluorescence polarization, cherry-picked samples (AID 504725); design: species or system Human gammaherpesvirus 8;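 also: fluorescence polarization of a labeled DNA duplex reporting LANA DNA binding; potency is for inhibitors that block LANA binding to the DNA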
# T1 sequence (O40947 whole entry): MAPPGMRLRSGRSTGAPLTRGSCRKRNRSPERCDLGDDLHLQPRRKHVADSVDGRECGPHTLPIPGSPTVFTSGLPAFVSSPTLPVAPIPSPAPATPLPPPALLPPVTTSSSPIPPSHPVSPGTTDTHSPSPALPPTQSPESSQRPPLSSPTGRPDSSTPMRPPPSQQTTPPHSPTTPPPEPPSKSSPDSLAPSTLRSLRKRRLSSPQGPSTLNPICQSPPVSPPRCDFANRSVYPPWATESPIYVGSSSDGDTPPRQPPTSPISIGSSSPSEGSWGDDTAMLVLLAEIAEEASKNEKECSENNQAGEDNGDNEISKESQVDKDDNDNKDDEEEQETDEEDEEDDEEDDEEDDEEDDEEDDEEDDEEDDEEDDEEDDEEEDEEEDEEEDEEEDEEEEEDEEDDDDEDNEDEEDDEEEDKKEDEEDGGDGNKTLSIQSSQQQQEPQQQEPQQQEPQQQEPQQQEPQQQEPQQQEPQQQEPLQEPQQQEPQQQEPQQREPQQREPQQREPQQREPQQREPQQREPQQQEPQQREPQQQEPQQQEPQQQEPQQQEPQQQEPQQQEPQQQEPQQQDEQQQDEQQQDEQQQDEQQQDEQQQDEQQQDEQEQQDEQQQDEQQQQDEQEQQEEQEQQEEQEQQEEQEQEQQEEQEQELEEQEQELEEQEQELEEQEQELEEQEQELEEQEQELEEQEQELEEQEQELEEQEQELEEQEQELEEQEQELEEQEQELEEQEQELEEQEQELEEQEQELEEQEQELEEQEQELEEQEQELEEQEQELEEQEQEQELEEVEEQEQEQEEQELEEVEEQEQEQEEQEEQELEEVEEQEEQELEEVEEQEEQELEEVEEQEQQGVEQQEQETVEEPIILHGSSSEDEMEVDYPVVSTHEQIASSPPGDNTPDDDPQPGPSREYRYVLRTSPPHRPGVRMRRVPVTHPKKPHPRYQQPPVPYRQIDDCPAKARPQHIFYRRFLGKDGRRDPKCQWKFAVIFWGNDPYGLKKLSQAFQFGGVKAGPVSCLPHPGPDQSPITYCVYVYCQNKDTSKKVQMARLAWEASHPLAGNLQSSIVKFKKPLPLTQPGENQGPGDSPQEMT
# [1] = biological target: Histone-lysine N-methyltransferase NSD2 (Homo sapiens, UniProt O96028); type: biochemical
# Hexokinase HKDC1 = biological target: T2, Hexokinase HKDC1 (Homo sapiens, UniProt Q2TB90); test: HKDC1 hexokinase inhibitors, dose response, biochemical, W721R variant (AID 504729); type: functional
# T2 sequence (Q2TB90 whole entry): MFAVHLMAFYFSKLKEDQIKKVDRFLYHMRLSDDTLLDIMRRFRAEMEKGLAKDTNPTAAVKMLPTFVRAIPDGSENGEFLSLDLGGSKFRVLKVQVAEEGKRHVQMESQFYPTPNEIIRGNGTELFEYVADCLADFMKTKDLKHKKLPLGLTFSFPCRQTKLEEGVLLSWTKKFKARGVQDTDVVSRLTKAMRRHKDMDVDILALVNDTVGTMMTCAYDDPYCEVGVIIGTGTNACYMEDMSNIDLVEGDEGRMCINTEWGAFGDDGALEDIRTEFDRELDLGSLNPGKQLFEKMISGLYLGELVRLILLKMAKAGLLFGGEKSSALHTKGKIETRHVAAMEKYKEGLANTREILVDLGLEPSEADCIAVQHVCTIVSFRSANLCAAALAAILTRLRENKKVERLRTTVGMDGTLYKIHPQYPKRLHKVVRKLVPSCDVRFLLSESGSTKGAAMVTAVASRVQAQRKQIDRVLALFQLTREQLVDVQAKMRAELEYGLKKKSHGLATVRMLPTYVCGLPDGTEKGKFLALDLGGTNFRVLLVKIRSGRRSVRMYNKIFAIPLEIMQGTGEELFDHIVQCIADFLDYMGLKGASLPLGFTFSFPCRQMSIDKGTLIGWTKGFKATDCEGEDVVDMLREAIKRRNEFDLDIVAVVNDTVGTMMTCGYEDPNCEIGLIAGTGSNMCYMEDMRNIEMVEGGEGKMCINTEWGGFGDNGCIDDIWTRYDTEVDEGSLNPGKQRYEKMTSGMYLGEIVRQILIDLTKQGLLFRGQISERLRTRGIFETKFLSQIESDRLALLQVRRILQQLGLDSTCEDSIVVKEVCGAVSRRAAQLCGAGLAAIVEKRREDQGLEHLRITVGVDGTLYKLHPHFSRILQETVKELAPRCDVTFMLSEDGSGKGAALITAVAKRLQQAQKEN
# [2] = biological target: Scavenger receptor class B member 1 (Mus musculus, UniProt Q61009); test: inhibitors of SR-BI mediated HDL lipid uptake, dose response, ldlA[mSR-BI] cells, fluorescence, cherry pick (AID 493194); type: functional, cell-based;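 also: cellular uptake of fluorescent DiI-labeled HDL measured as cell fluorescence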
# Cytochrome P450 2D6 = Cytochrome P450 2D6 (Homo sapiens, UniProt P10635); test: qHTS Assay for Inhibitors and Substrates of Cytochrome P450 2D6. [Related pubchem assays: 410 ]; type: ADME; conditions: read-out: Potency
# Cytochrome P450 3A4 = Cytochrome P450 3A4 (Homo sapiens, UniProt P08684); conditions: Potency;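 also: confirmatory qHTS run detecting inhibitors and substrates of CYP3A4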
# [3] = inhibitors of firefly luciferase expression or activity, dose response, H4 neuroglioma cells, luminescence (AID 1990); type: functional, cell-based
# [4] = Luminescence Cell-Based Dose Response HTS to Identify Inhibitors of 5'UTR Stem-Loop Driven Prion Protein mRNA Translation in H4 Neuroglioblastoma Cells. [Related pubchem assays: 1827 (Project Summary), 1813 (Primary HTS)]; type: functional
# [5] = inhibitors of SNCA 5'UTR-driven reporter translation, confirmation, H4 neuroglioma cells, luminescence (AID 1988); type: functional, cell-based
# INS1 = test: beta cell apoptosis inhibitors, cytokine rescue, dose response, luminescence, retest (AID 449756); type: functional, cell-based; conditions: Rattus norvegicus;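 also: cell death triggered by IL-1 beta plus TNF-alpha plus IFN-gamma mixture; protective hits raise ATP signal compared with cytokine alone wells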
# [6] = test system: Streptococcus sp. 'group A'; test: growth inhibition of control SK(-) GAS strain, dose response, counter-screen for streptokinase expression inhibitor project, luminescence, kanamycin, BacTiterGlo, confirmation (AID 1900); type: functional, organism-based
# [7] = biological target: Serine/threonine-protein phosphatase PP1-alpha catalytic subunit (Homo sapiens, UniProt P62136); test: PP1 phosphatase inhibitors, dose response, biochemical, fluorescence (AID 2403);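 also: phosphatase turnover of OMFP into fluorescent 3-O-methylfluorescein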
# Streptokinase A = biological target: T3, Streptokinase A (Streptococcus pyogenes serotype M1, UniProt P10520); test: S. pyogenes streptokinase expression inhibitors, potency, dose response, plasminogen activation absorbance, OD405 (AID 1914); type: functional, Streptococcus pyogenes M1 GAS;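 also: secreted streptokinase activity via plasminogen activation per viability signal from cell pellet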
# T3 sequence (P10520 whole entry): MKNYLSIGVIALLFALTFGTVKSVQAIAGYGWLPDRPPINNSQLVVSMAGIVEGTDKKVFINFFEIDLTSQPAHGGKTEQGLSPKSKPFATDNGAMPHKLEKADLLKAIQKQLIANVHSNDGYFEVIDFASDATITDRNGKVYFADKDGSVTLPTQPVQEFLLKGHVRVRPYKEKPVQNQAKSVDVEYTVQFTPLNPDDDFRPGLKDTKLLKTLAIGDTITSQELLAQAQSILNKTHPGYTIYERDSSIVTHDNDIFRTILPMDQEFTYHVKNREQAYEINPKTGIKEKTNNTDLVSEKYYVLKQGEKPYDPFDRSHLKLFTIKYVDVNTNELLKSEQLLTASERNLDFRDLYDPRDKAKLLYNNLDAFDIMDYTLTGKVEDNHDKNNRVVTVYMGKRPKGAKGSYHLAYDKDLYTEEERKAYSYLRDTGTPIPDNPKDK
# [8] = biological target: Serine/threonine-protein phosphatase (Homo sapiens, UniProt Q9BPW0); test: Counterscreen for inhibitors of PP1: fluorescence-based biochemical high throughput dose response assay to identify inhibitors of Protein Phosphatase 5 (PP5). [Related pubchem assays: 2034 (Summary (PP5 inhibitors)), 1987 (PP5 inhibitors in singlate), 2235 (PP1 inhibitors in singlate)]
# Streptococcus = test: Group A Streptococcus viability loss, dose response, counter-screen for streptokinase expression inhibitor project, luminescence, BacTiterGlo (AID 1915); type: functional, organism-based;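 also: potency for reduction of bacterial viability or growth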
# [9] = THP-1 cell cytotoxicity, dose response, cytotoxicity control for non-replicating M. tuberculosis project (AID 489025); type: functional
# [10] = Vero E6 cell cytotoxicity, dose response, cytotoxicity control for non-replicating M. tuberculosis project, secondary assay (AID 492998); type: functional, VeroE6; conditions: Vero C1008
# [11] = biological target: T4, Microphthalmia-associated transcription factor (Homo sapiens, UniProt O75030); test: TRPM1 promoter luciferase signal decrease, dose response, MITF inhibitor project, cell-based, SK-MEL-5, cherry-picked, set 3 (AID 493073); type: functional
# T4 sequence (O75030 whole entry): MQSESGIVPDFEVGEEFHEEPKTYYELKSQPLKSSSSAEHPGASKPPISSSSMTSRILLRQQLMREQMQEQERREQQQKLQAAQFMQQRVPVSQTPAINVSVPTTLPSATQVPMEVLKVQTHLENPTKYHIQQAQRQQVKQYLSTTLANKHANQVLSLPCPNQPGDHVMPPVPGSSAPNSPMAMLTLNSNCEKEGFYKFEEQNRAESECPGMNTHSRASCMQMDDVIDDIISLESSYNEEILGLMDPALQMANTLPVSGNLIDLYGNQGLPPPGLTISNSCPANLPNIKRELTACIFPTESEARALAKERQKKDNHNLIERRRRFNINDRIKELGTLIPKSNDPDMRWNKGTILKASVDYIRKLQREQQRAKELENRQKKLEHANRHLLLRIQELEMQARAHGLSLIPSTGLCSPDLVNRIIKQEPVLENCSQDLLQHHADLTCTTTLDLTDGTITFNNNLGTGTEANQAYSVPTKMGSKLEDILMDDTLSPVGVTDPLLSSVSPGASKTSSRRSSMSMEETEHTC
# cells = type: functional
# Vero = test: cells; type: functional; conditions: Chlorocebus sabaeus
# Sequence of Cytochrome P450 2C19 (P33261 whole entry): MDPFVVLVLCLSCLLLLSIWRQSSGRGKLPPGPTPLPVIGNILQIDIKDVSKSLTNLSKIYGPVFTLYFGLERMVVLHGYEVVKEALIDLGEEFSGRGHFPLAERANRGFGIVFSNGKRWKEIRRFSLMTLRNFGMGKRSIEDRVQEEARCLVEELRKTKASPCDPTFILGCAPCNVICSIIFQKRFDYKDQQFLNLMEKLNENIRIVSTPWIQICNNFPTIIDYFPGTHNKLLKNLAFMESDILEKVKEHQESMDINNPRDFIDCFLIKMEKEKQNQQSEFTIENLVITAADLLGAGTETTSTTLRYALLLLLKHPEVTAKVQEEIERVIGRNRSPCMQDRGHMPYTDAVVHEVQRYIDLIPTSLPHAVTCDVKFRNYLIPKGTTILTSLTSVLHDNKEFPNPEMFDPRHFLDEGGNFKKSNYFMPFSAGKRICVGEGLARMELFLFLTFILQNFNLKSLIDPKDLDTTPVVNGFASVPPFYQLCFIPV
# Sequence of Scavenger receptor class B member 1 (Q61009 whole entry): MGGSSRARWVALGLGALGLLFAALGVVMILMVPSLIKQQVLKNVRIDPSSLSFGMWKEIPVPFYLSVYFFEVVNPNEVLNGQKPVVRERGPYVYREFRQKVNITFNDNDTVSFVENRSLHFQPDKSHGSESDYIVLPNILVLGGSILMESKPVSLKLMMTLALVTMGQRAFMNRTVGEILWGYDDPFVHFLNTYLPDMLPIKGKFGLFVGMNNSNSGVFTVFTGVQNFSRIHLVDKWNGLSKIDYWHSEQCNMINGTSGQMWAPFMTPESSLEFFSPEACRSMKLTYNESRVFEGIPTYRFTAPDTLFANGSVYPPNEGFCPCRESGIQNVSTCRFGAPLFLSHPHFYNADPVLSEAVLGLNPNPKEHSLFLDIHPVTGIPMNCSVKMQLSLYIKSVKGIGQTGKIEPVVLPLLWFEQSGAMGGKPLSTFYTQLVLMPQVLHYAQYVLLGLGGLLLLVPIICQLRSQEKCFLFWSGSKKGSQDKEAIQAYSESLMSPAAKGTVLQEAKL
# Sequence of Cytochrome P450 2D6 (P10635 whole entry): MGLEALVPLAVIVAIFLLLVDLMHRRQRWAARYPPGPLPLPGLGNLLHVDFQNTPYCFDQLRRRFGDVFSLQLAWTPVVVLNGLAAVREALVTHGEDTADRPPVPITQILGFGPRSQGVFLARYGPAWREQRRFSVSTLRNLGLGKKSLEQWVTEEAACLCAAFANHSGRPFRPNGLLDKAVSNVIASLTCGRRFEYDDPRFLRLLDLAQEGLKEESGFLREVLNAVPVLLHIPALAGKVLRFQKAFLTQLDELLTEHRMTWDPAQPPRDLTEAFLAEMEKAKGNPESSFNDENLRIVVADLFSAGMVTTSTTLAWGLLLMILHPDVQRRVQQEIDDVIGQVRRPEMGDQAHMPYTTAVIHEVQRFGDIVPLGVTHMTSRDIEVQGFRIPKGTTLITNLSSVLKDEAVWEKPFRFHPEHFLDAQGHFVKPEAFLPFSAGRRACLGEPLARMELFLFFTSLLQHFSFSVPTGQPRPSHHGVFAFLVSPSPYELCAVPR
# Sequence of Cytochrome P450 2C9 (P11712 whole entry): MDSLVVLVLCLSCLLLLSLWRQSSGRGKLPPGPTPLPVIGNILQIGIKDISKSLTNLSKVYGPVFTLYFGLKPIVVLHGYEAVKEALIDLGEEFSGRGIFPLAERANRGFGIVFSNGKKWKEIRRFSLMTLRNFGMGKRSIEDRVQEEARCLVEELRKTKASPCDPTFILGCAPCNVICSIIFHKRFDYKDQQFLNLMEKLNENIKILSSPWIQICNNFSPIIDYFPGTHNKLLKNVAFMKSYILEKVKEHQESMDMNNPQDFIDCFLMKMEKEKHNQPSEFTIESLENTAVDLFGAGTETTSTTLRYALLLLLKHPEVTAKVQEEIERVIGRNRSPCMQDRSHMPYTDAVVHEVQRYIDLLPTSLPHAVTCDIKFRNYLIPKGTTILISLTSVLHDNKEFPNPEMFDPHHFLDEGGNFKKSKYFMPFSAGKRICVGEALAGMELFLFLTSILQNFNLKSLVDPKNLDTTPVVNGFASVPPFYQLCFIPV
# Sequence of Serine/threonine-protein phosphatase PP1-alpha catalytic subunit (P62136 whole entry): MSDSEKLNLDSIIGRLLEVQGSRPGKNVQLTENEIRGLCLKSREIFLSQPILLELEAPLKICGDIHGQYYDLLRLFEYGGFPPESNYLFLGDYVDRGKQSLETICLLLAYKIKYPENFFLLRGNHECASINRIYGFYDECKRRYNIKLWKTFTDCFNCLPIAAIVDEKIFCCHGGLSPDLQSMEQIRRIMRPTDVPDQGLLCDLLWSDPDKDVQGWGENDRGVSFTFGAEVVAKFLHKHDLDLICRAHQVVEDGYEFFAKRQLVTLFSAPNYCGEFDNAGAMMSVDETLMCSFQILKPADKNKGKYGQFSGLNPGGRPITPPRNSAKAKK
# Sequence of Histone-lysine N-methyltransferase NSD2 (O96028 whole entry): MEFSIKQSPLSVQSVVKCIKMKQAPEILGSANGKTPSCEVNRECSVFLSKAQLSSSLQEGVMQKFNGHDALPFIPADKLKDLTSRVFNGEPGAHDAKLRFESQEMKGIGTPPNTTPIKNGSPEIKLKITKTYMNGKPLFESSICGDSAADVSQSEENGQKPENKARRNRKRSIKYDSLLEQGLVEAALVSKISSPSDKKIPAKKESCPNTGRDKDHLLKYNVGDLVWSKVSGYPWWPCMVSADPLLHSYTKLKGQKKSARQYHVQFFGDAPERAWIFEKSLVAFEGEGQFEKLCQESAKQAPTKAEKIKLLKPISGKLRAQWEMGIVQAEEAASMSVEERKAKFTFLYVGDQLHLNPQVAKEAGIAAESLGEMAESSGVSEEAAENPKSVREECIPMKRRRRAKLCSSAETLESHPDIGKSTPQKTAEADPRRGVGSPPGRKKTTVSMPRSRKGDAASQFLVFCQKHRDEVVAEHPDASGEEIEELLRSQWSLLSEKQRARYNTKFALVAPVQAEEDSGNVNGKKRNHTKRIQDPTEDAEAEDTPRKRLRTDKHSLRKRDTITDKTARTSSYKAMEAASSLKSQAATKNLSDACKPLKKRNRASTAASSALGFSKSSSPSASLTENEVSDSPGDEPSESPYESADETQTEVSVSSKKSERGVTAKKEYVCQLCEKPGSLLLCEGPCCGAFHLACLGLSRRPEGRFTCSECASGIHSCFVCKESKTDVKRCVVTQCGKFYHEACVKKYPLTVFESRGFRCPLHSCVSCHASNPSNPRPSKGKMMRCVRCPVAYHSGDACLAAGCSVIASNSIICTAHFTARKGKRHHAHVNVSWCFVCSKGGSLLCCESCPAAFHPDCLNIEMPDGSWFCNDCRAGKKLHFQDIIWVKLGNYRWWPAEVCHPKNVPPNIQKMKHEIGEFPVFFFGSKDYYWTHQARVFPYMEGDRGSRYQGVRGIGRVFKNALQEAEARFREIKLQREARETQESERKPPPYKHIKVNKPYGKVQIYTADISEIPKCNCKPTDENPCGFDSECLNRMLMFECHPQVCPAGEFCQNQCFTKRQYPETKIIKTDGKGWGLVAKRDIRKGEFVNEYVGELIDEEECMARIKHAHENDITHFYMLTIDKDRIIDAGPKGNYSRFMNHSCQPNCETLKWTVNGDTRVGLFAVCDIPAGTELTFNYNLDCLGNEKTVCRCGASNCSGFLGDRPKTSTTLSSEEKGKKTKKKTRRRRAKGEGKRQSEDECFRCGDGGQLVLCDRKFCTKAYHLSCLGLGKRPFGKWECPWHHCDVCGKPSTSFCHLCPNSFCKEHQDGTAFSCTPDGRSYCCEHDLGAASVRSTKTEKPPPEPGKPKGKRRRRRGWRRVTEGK
# Sequence of Cytochrome P450 3A4 (P08684 whole entry): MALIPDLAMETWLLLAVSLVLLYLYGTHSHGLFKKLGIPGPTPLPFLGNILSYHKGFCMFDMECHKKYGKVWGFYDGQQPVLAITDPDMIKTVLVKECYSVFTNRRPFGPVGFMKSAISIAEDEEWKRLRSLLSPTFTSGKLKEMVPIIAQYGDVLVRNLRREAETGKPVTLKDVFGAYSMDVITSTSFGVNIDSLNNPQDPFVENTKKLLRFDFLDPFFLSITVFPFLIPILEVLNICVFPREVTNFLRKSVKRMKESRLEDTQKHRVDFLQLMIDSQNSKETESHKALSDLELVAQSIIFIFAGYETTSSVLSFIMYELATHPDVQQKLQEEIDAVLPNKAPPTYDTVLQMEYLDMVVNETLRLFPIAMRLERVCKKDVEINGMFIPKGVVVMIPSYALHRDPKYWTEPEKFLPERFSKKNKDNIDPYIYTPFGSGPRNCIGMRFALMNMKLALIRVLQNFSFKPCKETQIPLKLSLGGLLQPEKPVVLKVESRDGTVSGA
# Sequence of Serine/threonine-protein phosphatase (Q9BPW0 whole entry): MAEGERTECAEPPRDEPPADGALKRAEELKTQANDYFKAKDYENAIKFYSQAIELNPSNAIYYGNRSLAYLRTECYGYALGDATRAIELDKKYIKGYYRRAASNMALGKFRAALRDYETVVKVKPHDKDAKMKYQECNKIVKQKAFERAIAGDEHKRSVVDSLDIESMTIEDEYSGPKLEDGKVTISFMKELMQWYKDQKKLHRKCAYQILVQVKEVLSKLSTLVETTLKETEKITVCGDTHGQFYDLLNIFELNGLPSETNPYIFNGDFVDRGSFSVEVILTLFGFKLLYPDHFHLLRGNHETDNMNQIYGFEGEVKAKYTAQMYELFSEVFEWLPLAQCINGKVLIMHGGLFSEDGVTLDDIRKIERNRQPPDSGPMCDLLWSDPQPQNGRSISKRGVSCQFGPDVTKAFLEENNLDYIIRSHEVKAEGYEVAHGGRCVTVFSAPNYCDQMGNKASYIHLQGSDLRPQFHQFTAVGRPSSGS
smiles,measurement,setting,value
CC(=O)OCC1OC(C#Cc2ccc(C)cc2C)C=CC1OC(C)=O (centres undefined),AC50,Cytochrome P450 2C19,1.58 µM (inconclusive)
same,AC50,Cytochrome P450 2C9,2.51 µM (inconclusive)
O=C1CCCC(=O)C1=NNc1ccc(C(=O)O)cc1,AC50,HeLa,> 350 µM (inactive)
same,AC50,ORF 73,30.2 µM (active)
same,AC50,[1],10.3 µM (active)
CCOC(=O)c1ccc(NC(=O)CSc2ccc(-c3ccccn3)nn2)cc1,IC50,Hexokinase HKDC1,2.31 µM (active)
O=C(c1cn(-c2ccccc2)nc1-c1cccc([N+](=O)[O-])c1)N1CCCCC1,AC50,[2],23.6 µM (active)
COC(=O)NC(/C(C(=O)OC)=C(\C)NCc1ccccc1)c1cccs1 (centres undefined),AC50,Cytochrome P450 2C19,0.0316 µM (inconclusive)
same,AC50,Cytochrome P450 2D6,3.98 µM (inconclusive)
same,AC50,Cytochrome P450 3A4,3.98 µM (inconclusive)
same,AC50,Cytochrome P450 2C9,7.94 µM (inconclusive)
O=C(Nc1cccc(NC(=O)c2cc([N+](=O)[O-])ccc2Cl)n1)c1cc([N+](=O)[O-])ccc1Cl,EC50,[3],15.3 µM (active)
same,EC50,[4],> 60 µM (not active)
same,EC50,[5],8.35 µM (active)
same,AC50,[2],20.2 µM (active)
same,AC50,INS1,6.4 µM (active)
COc1ccc(/C=N/Nc2cc(C)nc(-n3nc(C)cc3C)n2)c(OC)c1,EC50,[6],9.67 µM (active)
same,IC50,[7],6.68 µM (active)
same,EC50,Streptokinase A,> 150 µM (not active)
same,IC50,[8],> 67 µM (not active)
same,EC50,Streptococcus,13.8 µM (active)
same,CC50,[9],5.91 µM (active)
same,CC50,[10],7.06 µM (active)
same,AC50,[11],10.4 µM (active)
same,IC50,cells,0.24 µM (active)
same,AC50,INS1,2.67 µM (active)
same,CC50,Vero,19.8 µM (active)
COc1ccc(-c2coc3cc(O)ccc3c2=O)cc1 [FORMONONETIN],AC50,Cytochrome P450 2C19,7.94 µM (inconclusive)
same,AC50,Cytochrome P450 2D6,10 µM (inconclusive)
